# From patent US20060147569A1, “Anti-depression formulations” (priority 2005, published 2006)
# Structures can show the parent of a compound that is named as a salt.
# Experiments:
# Assay type in all cases: in vivo
# brain MAO-A = target: T1, brain MAO-A (Rattus norvegicus, UniProt P21396); assay: Brain MAO-A activity in CMS-treated rats; details: brain of CMS-treated rats, 10 mg/kg oral daily for 6 weeks
# T1 construct: Rat brain mitochondrial fractions were prepared; from tissue; host or cells: rat brain mitochondrial fraction
# T1 sequence (P21396 1-526): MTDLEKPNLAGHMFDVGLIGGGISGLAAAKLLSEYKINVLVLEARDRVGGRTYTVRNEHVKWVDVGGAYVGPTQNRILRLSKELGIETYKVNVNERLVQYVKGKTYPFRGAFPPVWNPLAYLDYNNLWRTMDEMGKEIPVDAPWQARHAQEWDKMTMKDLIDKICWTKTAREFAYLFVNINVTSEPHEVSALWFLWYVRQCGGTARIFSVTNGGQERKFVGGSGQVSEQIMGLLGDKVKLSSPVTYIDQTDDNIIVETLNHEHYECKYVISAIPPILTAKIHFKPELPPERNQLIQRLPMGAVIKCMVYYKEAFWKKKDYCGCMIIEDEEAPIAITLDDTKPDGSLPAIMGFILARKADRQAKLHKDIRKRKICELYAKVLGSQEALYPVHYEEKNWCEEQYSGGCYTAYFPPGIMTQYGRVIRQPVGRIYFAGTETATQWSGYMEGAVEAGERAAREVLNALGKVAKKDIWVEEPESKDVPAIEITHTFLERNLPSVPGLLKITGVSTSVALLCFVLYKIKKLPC
# Procedure: (§1) 3. Administration and Doses • Non CMS-treated Saline group: 10 ml/kg/day. • CMS-treated Saline group: 10 ml/kg/day. • Composition I (200) group: 200 mg/kg/day. • Composition I (150) group: 150 mg/kg/day. • Fluoxetine group (positive control): 10 mg/kg/day.
# (§2) Animals therein were divided randomly into the following four subgroups: • (1) Composition I (200) group: received composition I at 200 mg/kg/day; • (2) Composition I (150) group: received composition I at 150 mg/kg/day; • (3) Fluoxetine group: received fluoxetine 10 mg/kg/day; (positive control); • (4) CMS-treated saline group: received saline 10 mL/kg/day. (negative control).
# (§3) 24 h after the last test of sucrose intake, between 10:00 a.m. and 11:00 a.m., all animals were decapitated quickly to get venous blood. Serum was separated by centrifugation at 3000 rpm and stored at −20° C. until assay of cortisol concentration. Brain tissues were rapidly removed on the ice-plate. The tissues were washed with cold saline, blotted dry and stored at −80° C. until assays of monoamine oxidase A and B (MAO-A and MAO-B) activity.
# (§4) Rat brain mitochondrial fractions were prepared following the procedure described in Schurr and Livne, 1976. MAO activity was assessed by spectrophotometer as described in Yu et al., 2002. […] The organic phase was measured at wavelength of 280 nm and 242 nm for MAO-A and MAO-B assay with spectrophotometer, respectively. […]
# Male ICR mice [1] = assay: Forced swimming test (FST) in mice; details: oral once daily, 26 mg/kg
# Excerpt: A major symptom of depression is decrease of motivational behaviors. In the FST model, the mice were forced to swim in a restricted space. First, they struggle in attempt to escape, which is a motivational behavior. After a period of time, the mice started to show occasional immobility, representing a “despair” mental state. The immobility is regarded as “failure to adapt to stress” and can be served as an indicator of the level of depression. The effectiveness of anti-depression drugs could be derived by measuring the duration of immobility after the mice had been forced to swim for a period of time. The model is sensitive to anti-depression drugs and is widely adopted as a means to screen such drugs. (Porsolt et al., 1977)
# (§5) Male ICR mice (26±2 g) were used. The mice were housed in polycarbonate cages. […]
# (§6) The animals were deprived of food but not water for 1.5 h prior to drug administration of. […] The volume of the suspension administered was based on body weight measured immediately prior to each dose, respectively. […]
# The studies were carried out on mice according to the method of Porsolt (Porsolt, et al., 1977). […] The duration of immobility time was measured during the final 4 min interval of the test. […]
# (§7) All data were expressed as mean±SEM, and analyzed using one-way analysis of variance (ANOVA). […]
# brain MAO-B = target: T2, brain MAO-B (Rattus norvegicus, UniProt P19643); assay: Brain MAO-B activity in CMS-treated rats; details: brain of CMS-treated rats, 10 mg/kg oral daily for 6 weeks
# T2 construct: Rat brain mitochondrial fractions were prepared; from tissue; host or cells: rat brain mitochondrial fraction
# T2 sequence (P19643 1-520): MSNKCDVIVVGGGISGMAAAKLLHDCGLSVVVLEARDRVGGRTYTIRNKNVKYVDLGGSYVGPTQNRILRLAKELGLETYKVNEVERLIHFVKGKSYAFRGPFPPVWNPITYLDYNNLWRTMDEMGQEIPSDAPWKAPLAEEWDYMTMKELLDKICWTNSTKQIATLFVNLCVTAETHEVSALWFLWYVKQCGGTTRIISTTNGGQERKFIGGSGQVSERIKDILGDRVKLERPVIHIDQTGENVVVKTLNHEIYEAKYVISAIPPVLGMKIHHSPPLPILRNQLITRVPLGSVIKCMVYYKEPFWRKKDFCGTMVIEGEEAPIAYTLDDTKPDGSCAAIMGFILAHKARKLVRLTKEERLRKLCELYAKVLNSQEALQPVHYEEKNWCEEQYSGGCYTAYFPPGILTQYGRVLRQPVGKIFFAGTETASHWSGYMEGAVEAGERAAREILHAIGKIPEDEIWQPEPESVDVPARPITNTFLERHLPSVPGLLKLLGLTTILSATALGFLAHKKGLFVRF
# Procedure: as §1, §2, §3, §4
# serum cortisol = assay: Serum cortisol level in CMS-treated rats (radioimmunoassay)
# Procedure: as §1, §2, §3
# Serum cortisol level was assayed using a radioimmunoassay method following the manufacturer's instructions. (Manufacturer: Bejing Furui Biotechnology Company, P.R. China. Product code: FR-FJ-055).
# Male ICR mice [2] = assay: Tail suspension test (TST) in mice; details: oral once daily, 26 mg/kg
# Excerpt: A major symptom of depression is decrease of motivational behaviors. In the TST model, the tail-suspended mice struggle in attempt to overcome the abnormal body positions, which is a motivational behavior. After a period of time, the mice started to show occasional immobility, representing a “despair” mental state. The immobility is regarded as “failure to adapt to stress” and can be served as an indicator of the level of depression. The effectiveness of anti-depression drugs could be derived by measuring the duration of immobility after the mice had been tail-suspended for a period of time. The model is sensitive to anti-depression drugs and is widely adopted as a means to screen such drugs. (Steru L, Chermat R, Thierry B, Simon P. 1985.)
# as §5, §6
# The tail suspension test was based on the method of Steru (Steru, et al., 1985). […] The duration of immobility time was recorded during the final 4 min interval of the test. […]
# as §7
# CMS-treated rats = assay: Sucrose intake test in chronic mild stress (CMS) model; details: for sucrose intake: CMS-treated rats, 10 mg/kg oral daily
# Excerpt: In the CMS model, rats are exposed sequentially, over a period of weeks, to a variety of mild stressors, and the measure most commonly used to track the effects is a decrease in consumption of a palatable sweet solution. This […] of antidepressants to increase sucrose intake in CMS model of rats. […] These impairments could be reversed by chronic administration of antidepressants such as tricyclic antidepressants, selective serotonin reuptake inhibitors and monoamine oxidase inhibitors. […] (Willner P. 1997)
# Male Wistar rats, weighing 180-220 g at the start of the experiment, were used in the experiments. During the one week before experiment, each rat was housed individually in a home cage, and had free access to food and water. They were maintained on a 12 h light/dark cycle under controlled temperature 25±2° C. and tested in the light phase.
# as §1
# The above substances at various concentrations were dissolved in saline. The volume of the suspension administered was based on body weight measured immediately prior to each dose, respectively. All groups were administered orally for six weeks, once per day. All groups except for Non-CMS-treated saline group received CMS treatment as described below.
# All animals were trained to consume 1% (w/v) sucrose solution in water. The training was conducted twice a week for consecutive 3 weeks. In the training, the rats in the home cage were deprived of food and water for 14 hours. After 14 hours, about 30 ml of 1% (w/v) sucrose solution in a pre-weighed bottled was placed in the home cages. 1 hour later, the bottle was taken out from the cage and weighed. The sucrose intake was calculated as follows: […]
# Calculation: Weight of Bottle Before Intake (g)—Weight of Bottle After Intake (g)
# After three weeks of training, when the sucrose intake of rats was stabilized, the rats started to receive further treatment. During the whole treatment period, the sucrose intakes of rats were monitored once every week from 9:00 a.m. to 10:00 a.m. with the same procedures as described above.
# After the three-weeks training, the rats were randomly divided into two groups: the non-CMS treated group and CMS-treated group. The stress group of animals was subjected to the CMS procedure for a period of four consecutive weeks. Each week of stress regime is consisted of six different stress situations. They involved two periods of food and water deprivation, two periods of 45 o cage tilt, two periods of intermittent illumination (lights on and off every 2 h), two periods of soiled cage (200 mL water in sawdust bedding), two periods of paired housing, and two periods of low intensity stroboscopic illumination (150 flashes/min). All of the stressors were 12-14 h of duration and were applied individually and sequentially, day and night.
# as §2
# The rats in non-CMS treated group received saline solution at 10 mL/kg orally. All administrations were given orally once daily at 10:00 a.m. for consecutive 6 weeks.
compound,measurement,setting,value
"CNCCC(Oc1ccc(C(F)(F)F)cc1)c1ccccc1 (stereo not drawn) [Fluoxetine, Fluoxetine Hydrochloride]",MAO activity A,brain MAO-A,78.05 ± 3.68 U/g protein
same,inhibition at 10 mg/kg,brain MAO-A; rat,16.4%
same,Duration of immobility,Male ICR mice [1]; 3 days,67.6 ± 10.2 s
same,Duration of immobility,Male ICR mice [1]; 7 days,67.1 ± 8.9 s
same,MAO activity B,brain MAO-B,54.50 ± 3.56 U/g protein
same,inhibition at 10 mg/kg,brain MAO-B; rat,54%
same,effect on serum cortisol levels (in words),"serum cortisol; CMS-treated rats, fluoxetine (10 mg/kg)",did not cause any significant alteration
same,Cortisol level,"serum cortisol; serum of CMS-treated rats, 10 mg/kg oral daily for 6 weeks",28.76 ± 0.56 ng/mL
same,Duration of immobility,Male ICR mice [2]; 3 days,23.2 ± 5.2 s
same,Duration of immobility,Male ICR mice [2]; 7 days,28.8 ± 6.4 s
same,recovery of the sucrose intake (in words),"CMS-treated rats; CMS rats, fluoxetine-treated (10 mg/kg)",not as strong as those treated with Composition (I)
same,sucrose intake,CMS-treated rats; week 0 of drug treatment,5.3 ± 1.4 g
same,sucrose intake,CMS-treated rats; week 1,5.5 ± 1.3 g
same,sucrose intake,CMS-treated rats; week 2,5.9 ± 1.4 g
same,sucrose intake,CMS-treated rats; week 3,7.3 ± 1.5 g
same,sucrose intake,CMS-treated rats; week 4,8.9 ± 1.1 g
same,sucrose intake,CMS-treated rats; week 5,10.4 ± 1.3 g
same,sucrose intake,CMS-treated rats; week 6,13.9 ± 1.3 g
